What was measured:
[1] = target: T1, CFTR in F508del/F508del primary CF hBE cells (Homo sapiens, UniProt P13569, DEL508-508); experiment: Ussing chamber electrophysiology assay of CFTR potentiation in F508del/F508del CF bronchial epithelial cells (27° C.); type: cell-based
T1 construct: Primary cystic fibrosis human bronchial epithelial (CF hBE) cells were expanded and cultured; endogenous in cells; host or cells: primary CF human bronchial epithelial cells, genotype F508del/F508del
Description: • SHELXTL, Version 5.1, Bruker AXS, 1997. • PLATON, A. L. Spek, J. Appl. Cryst. 2003, 36, 7-13. • MERCURY, C. F. Macrae, P. R. Edington, P. McCabe, E. Pidcock, G. P. Shields, R. Taylor, M. Towler and J. van de Streek, J. Appl. Cryst. 39, 453-457, 2006. • OLEX2, Dolomanov, O. V.; Bourhis, L. J.; Gildea, R. J.; Howard, J. A. K.; Puschmann, H., (2009). J. Appl. Cryst., 42, 339-341. • R. W. W. Hooft et al. J. Appl. Cryst. (2008). 41. 96-103. • H. D. Flack, Acta Cryst. 1983, A39, 867-881. Using Chamber Electrophysiology Assay of CFTR Potentiation in CF Bronchial Epithelial Cells
Primary cystic fibrosis human bronchial epithelial (CF hBE) cells were expanded and cultured according to published methods (Neuberger et al., Ch. 4 of Cystic Fibrosis, Methods in Molecular Biology vol. 741, pp. 39-54 (2011)). Well-differentiated cells (>30 days at air/liquid interface) on Snapwell filters (Corning Costar, cat. no. 3801) were mounted in Ussing chambers (Physiologic Instruments, Inc., San Diego, CA). […] HEPES buffered physiological saline (composition (in mM): 137 NaCl, 4 KCl, 1 MgCl2, 1.8 CaCl2), 10 HEPES Na) was used in both apical and basolateral chambers. Chambers were bubbled with air to promote mixing and the voltage was clamped to zero. Amiloride (30 uM), forskolin (10 uM), test compound (4 increasing concentrations), and CFTRinh-172 (20 uM) were added sequentially with 20-25 minutes between additions. Short-circuit currents were acquired and analyzed using LabScribe2. Test compound responses were scaled relative to responses for DMSO (0%) and the maximal response of a positive control potentiator (100%).

[2] = target: T2, recombinant F508del V470 CFTR in Fischer rat thyroid (FRT) cells (Homo sapiens, UniProt P13569, DEL508-508); experiment: FRT ion flux assay of F508del CFTR potentiation; type: cell-based; settings: FRT cells expressing F508del V470 CFTR, forskolin 20 uM, 27° C. pre-incubation
T2 construct: expressed in transfected cells
Procedure: FRT Ion Flux Assay of F508del CFTR Potentiation
Fischer rat thyroid (FRT) cell lines stably expressing recombinant F508del V470 CFTR and halide-sensitive yellow fluorescent protein (Pedemonte et al., J. Clin. Invest. 115(9) 2564-71 (2005)) were seeded at 25,000 cells/well in 50 uL/well of culture medium into black-walled, clear bottom tissue-culture-treated 384-well plates (Corning, cat. no. 3712). After one day, the cells were pre-incubated at 27° C./5% CO2 for 16-24 hours. The cells were then washed with dPBS and treated with forskolin (20 uM) and test compound for 30 mi by addition of 20 uL of compound dilution buffer (dPBS containing forskolin and test compound). Plates were loaded into FLIPR384 fluorescence imaging plate reader (Molecular Devices). After an initial fluorescence reading, iodide buffer (25 uL) (composition (in mM): 137 NaI, 1.5 K2PO4, 8.1 NaH2PO4, 2.7 KCl, 0.5 MgCl2, 1 CaCl2) was added and a second fluorescence reading was made after approximately 21 seconds. Data treatment involved division of the second fluorescence reading by the initial fluorescence reading, then scaling of the resulting normalized endpoint fluorescence with respect to the responses for DMSO (0%) and a positive control potentiator (100%).

T2 sequence (P13569 with tags, fused parts or gaps DEL508-508): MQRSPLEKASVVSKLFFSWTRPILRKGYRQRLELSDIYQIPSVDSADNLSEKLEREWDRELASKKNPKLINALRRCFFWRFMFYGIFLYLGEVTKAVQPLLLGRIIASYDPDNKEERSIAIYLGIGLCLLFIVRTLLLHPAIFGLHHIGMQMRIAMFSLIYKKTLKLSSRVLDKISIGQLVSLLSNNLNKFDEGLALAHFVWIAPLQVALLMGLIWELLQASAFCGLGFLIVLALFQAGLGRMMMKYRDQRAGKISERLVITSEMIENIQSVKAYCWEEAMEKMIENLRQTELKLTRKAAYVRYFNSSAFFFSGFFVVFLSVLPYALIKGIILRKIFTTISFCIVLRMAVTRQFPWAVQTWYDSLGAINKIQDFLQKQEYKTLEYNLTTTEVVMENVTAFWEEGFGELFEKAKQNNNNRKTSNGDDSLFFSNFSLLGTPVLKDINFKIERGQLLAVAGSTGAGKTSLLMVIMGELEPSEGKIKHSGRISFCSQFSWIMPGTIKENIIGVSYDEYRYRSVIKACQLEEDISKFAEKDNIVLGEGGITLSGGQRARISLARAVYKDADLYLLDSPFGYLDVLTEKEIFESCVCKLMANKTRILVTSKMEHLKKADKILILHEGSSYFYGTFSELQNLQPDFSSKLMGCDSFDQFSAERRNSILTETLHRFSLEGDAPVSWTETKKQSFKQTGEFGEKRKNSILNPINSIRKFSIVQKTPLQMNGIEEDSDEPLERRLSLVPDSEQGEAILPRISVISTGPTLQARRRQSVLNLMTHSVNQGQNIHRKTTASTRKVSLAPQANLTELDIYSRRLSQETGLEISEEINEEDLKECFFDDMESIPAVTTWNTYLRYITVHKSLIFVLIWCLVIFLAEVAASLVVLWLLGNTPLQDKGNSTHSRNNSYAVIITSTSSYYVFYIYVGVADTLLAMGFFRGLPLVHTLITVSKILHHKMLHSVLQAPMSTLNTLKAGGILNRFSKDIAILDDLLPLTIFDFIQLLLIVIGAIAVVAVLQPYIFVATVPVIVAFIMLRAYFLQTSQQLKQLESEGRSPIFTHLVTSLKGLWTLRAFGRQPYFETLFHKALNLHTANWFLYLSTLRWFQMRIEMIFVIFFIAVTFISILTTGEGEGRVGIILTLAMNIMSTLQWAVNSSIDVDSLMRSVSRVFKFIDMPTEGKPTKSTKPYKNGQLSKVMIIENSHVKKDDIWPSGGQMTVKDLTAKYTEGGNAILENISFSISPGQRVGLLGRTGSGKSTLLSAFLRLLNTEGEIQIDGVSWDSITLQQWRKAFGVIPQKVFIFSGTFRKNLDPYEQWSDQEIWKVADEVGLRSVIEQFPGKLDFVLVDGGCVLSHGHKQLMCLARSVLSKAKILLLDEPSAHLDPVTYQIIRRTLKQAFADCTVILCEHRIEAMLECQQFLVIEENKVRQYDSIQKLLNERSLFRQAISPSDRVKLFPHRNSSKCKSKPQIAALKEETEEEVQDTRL
T1 sequence (P13569 with tags, fused parts or gaps DEL508-508): as above

Row | SMILES | EC50 [1] [µM] | EC50 [2] [µM]
1 | CC(c1cn(-c2ccccc2F)nn1)n1c(C#N)c(-c2cnc(C(F)(F)F)nc2)c2c(N)ncnc21 (single isomer, unassigned) [Example 10, 4-Amino-7-{1-[1-(2-fluorophenyl)-1H-1,2,3-triazol-4-yl]ethyl}-5-[2-(trifluoromethyl)pyrimidin-5-yl]-7H-pyrrolo[2,3-d]pyrimidine-6-carbonitrile] | 0.0703 | 0.0776
2 | CC(c1cn(-c2ccc(F)cc2F)nn1)n1c(C#N)c(-c2cnc(C(F)(F)F)nc2)c2c(N)ncnc21 (single isomer, unassigned) [Example 11, 4-Amino-7-{1-[1-(2,4-difluorophenyl)-1H-1,2,3-triazol-4-yl]ethyl}-5-[2-(trifluoromethyl)pyrimidin-5-yl]-7H-pyrrolo[2,3-d] pyrimidine-6-carbonitrile] | 0.0335 | 0.0198
3 | Cc1c(C(C)n2c(C#N)c(-c3cnc(C(F)(F)F)nc3)c3c(N)ncnc32)nnn1-c1ccccc1F (single isomer, unassigned) [Example 12, 4-amino-7-(1-(1-(2-fluorophenyl)-5-methyl-1H-1,2,3-triazol-4-yl)ethyl)-5-(2-(trifluoromethyl)pyrimidin-5-yl)-7H-pyrrolo[2,3-d]pyrimidine-6-carbonitrile] | 0.0225 | 0.00666
4 | Cc1c(C(C)n2c(C#N)c(-c3cnc(C(F)(F)F)nc3)c3c(N)ncnc32)nnn1-c1ccccc1F (single isomer, unassigned) [Example 13, 4-amino-7-(1-(1-(2-fluorophenyl)-5-methyl-1H-1,2,3-triazol-4-yl)ethyl)-5-(2-(trifluoromethyl)pyrimidin-5-yl)-7H-pyrrolo[2,3-d] pyrimidine-6-carbonitrile] | 0.267 | 0.0968
5 | COc1ncc(-c2c(C#N)n(C(C)c3cc(-c4ccccc4F)no3)c3ncnc(N)c23)cn1 (single isomer, unassigned) [Example 14, 4-amino-7-{1-[3-(2-fluorophenyl)-1,2-oxazol-5-yl]ethyl}-5-(2-methoxypyrimidin-5-yl)-7H-pyrrolo[2,3-d]pyrimidine-6-carbonitrile] | 0.013 | 0.0236
6 | COc1ncc(-c2c(C#N)n(C(C)c3cc(-c4ccccc4F)no3)c3ncnc(N)c23)cn1 (single isomer, unassigned) [Example 15, 4-amino-7-{1-[3-(2-fluorophenyl)-1,2-oxazol-5-yl]ethyl}-5-(2-methoxypyrimidin-5-yl)-7H-pyrrolo[2,3-d]pyrimidine-6-carbonitrile] | 0.007 | 0.00722
7 | CCC(c1cn(-c2ccc(F)cc2F)nn1)n1c(C#N)c(-c2cnc(C(F)(F)F)nc2)c2c(N)ncnc21 (single isomer, unassigned) [Example 16, 4-Amino-7-{1-[1-(2,4-difluorophenyl)-1H-1,2,3-triazol-4-yl]propyl}-5-[2-(trifluoromethyl)pyrimidin-5-yl]-7H-pyrrolo[2,3-d] pyrimidin-6-carbonitrile] | 0.009 | 0.00639
8 | CCC(c1cn(-c2ccc(F)cc2F)nn1)n1c(C#N)c(-c2cnc(C(F)(F)F)nc2)c2c(N)ncnc21 (single isomer, unassigned) [Example 17, 4-Amino-7-{1-[1-(2,4-difluorophenyl)-1H-1,2,3-triazol-4-yl]propyl}-5-[2-(trifluoromethyl)pyrimidin-5-yl]-7H-pyrrolo[2,3-d] pyrimidin-6-carbonitrile] | 0.0495 | 0.0453
9 | CCC(c1cn(-c2cccc(F)c2F)nn1)n1c(C#N)c(-c2cnc(C(F)(F)F)nc2)c2c(N)ncnc21 (single isomer, unassigned) [Example 18, 4-amino-7-{1-[1-(2,3-difluorophenyl)-1H-1,2,3-triazol-4-yl]propyl}-5-[2-(trifluoromethyl)pyrimidin-5-yl]-7H-pyrrolo[2,3-d] pyrimidine-6-carbonitrile] | 0.0125 | 0.0108
10 | CCC(c1cn(-c2cccc(F)c2F)nn1)n1c(C#N)c(-c2cnc(C(F)(F)F)nc2)c2c(N)ncnc21 (single isomer, unassigned) [Example 19, 4-amino-7-{1-[1-(2,3-difluorophenyl)-1H-1,2,3-triazol-4-yl]propyl}-5-[2-(trifluoromethyl)pyrimidin-5-yl]-7H-pyrrolo[2,3-d] pyrimidine-6-carbonitrile] | 0.0347 | 0.0696
11 | CCC(c1cnn(-c2ccc(F)cc2F)c1)n1c(C#N)c(-c2cnc(C(F)(F)F)nc2)c2c(N)ncnc21 (single isomer, unassigned) [Example 20, 4-Amino-7-{1-[1-(2,4-difluorophenyl)-1H-pyrazol-4-yl]propyl}-5-[2-(trifluoromethyl)pyrimidin-5-yl]-7H-pyrrolo[2,3-d]pyrimidine-6-carbonitrile] | 0.00548 | 0.0141
12 | CCC(c1cnn(-c2ccc(F)cc2F)c1)n1c(C#N)c(-c2cnc(C(F)(F)F)nc2)c2c(N)ncnc21 (single isomer, unassigned) [Example 21, 4-Amino-7-{1-[1-(2,4-difluorophenyl)-1H-pyrazol-4-yl]propyl}-5-[2-(trifluoromethyl)pyrimidin-5-yl]-7H-pyrrolo[2,3-d]pyrimidine-6-carbonitrile] | 0.00045 | 0.00087
13 | CCC(c1cn(-c2ccccc2F)nn1)n1c(C#N)c(-c2cnc(C(F)(F)F)nc2)c2c(N)ncnc21 (single isomer, unassigned) [Example 22, 4-Amino-7-{1-[1-(2-fluorophenyl)-1H-1,2,3-triazol-4-yl]propyl}-5-[2-(trifluoromethyl)pyrimidin-5-yl]-7H-pyrrolo[2,3-d]pyrimidine-6-carbonitrile] | 0.00684 | 0.00405
14 | CCC(c1cn(-c2ccccc2F)nn1)n1c(C#N)c(-c2cnc(C(F)(F)F)nc2)c2c(N)ncnc21 (single isomer, unassigned) [Example 23, 4-Amino-7-{1-[1-(2-fluorophenyl)-1H-1,2,3-triazol-4-yl]propyl}-5-[2-(trifluoromethyl)pyrimidin-5-yl]-7H-pyrrolo[2,3-d]pyrimidine-6-carbonitrile] | 0.0325 | 0.0418
15 | CCC(c1cn(-c2ccccc2F)nn1)n1c(C#N)c(-c2ccc(OC(F)F)nc2)c2c(N)ncnc21 (single isomer, unassigned) [Example 24, 4-Amino-5-[6-(difluoromethoxy)pyridin-3-yl]-7-{1-[1-(2-fluorophenyl)-1H-1,2,3-triazol-4-yl]propyl}-7H-pyrrolo[2,3-d]pyrimidine-6-carbonitrile] | 0.03 | 0.0215
16 | CC(c1cn(-c2ccccc2F)nn1)n1cc(C2CC2)c2c(N)ncnc21 (single isomer, unassigned) [Example 108, 5-Cyclopropyl-7-{1-[1-(2-fluorophenyl)-1H-1,2,3-triazol-4-yl]ethyl}-7H-pyrrolo[2,3-d]pyrimidin-4-amine] | 0.706 | 1.2
17 | CC(c1cn(-c2ccccc2F)nn1)n1cc(C2CC2)c2c(N)ncnc21 (single isomer, unassigned) [Example 109, 5-Cyclopropyl-7-{1-[1-(2-fluorophenyl)-1H-1,2,3-triazol-4-yl]ethyl}-7H-pyrrolo[2,3-d]pyrimidin-4-amine] | 0.0686 | 0.0365
18 | CC(c1cn(-c2ccccc2F)nn1)n1cc(C2CCC2)c2c(N)ncnc21 (single isomer, unassigned) [Example 110, 5-Cyclobutyl-7-{1-[1-(2-fluorophenyl)-1H-1,2,3-triazol-4-yl]ethyl}-7H-pyrrolo[2,3-d]pyrimidin-4-amine] | 0.00621 | 0.00265
19 | CC(c1cn(-c2ccccc2F)nn1)n1cc(-c2ccc(Cl)cc2)c2c(N)ncnc21 (single isomer, unassigned) [Example 111] | 0.136 | 0.533

From US12612409B2, “Pyrrolopyrimidines as CFTR potentiators” (Cystic Fibrosis Foundation, priority 2016, dated 2026)
